We go through three compounds from ChEMBL document CHEMBL4610080, “Natural Products as Sources of New Drugs over the Nearly Four Decades from 01/1981 to 09/2019” (2020).

What all share (format): functional
One assay has as its system Enterococcus. The experiment in a line: Antibacterial activity against vancomycin-resistant Enterococcus assessed as reduction in microbial growth.
For assay [1], the system named is Mycobacterium tuberculosis. In words: Antibacterial activity against Mycobacterium tuberculosis assessed as reduction in microbial growth.
In another assay the test system is Staphylococcus aureus. In words: Antibacterial activity against Staphylococcus aureus NCTC 8325 assessed as reduction in microbial growth.

As a reminder, the MIC is the least concentration at which growth counts as inhibited.

`O=C(Nc1ccc2c(c1)OC(F)(F)O2)Nc1ccc(Cl)c(C(F)(F)F)c1`: the results for the MIC (with Enterococcus; in assay [1]; in the assay with Staphylococcus aureus) were 1 µg/mL, 0.93 µg/mL and 0.18 µg/mL, respectively.
For the compound `CC(=O)NC[C@H]1CN(c2ccc(N3CCOCC3)c(F)c2)C(=O)O1` [LINEZOLID], the MIC with Staphylococcus aureus turned out to be 1 µg/mL.
As for `CN[C@H](CC(C)C)C(=O)N[C@H]1C(=O)N[C@@H](CC(N)=O)C(=O)N[C@H]2C(=O)N[C@H]3C(=O)N[C@H](C(=O)N[C@H](C(=O)O)c4cc(O)cc(O)c4-c4cc3ccc4O)[C@H](O)c3ccc(c(Cl)c3)Oc3cc2cc(c3O[C@@H]2O[C@H](CO)[C@@H](O)[C@H](O)[C@H]2O[C@H]2C[C@](C)(N)[C@H](O)[C@H](C)O2)Oc2ccc(cc2Cl)[C@H]1O` [VANCOMYCIN], the MIC in the assay on Staphylococcus aureus amounted to 1.4 µg/mL.
